In ChEMBL document CHEMBL1201862, “PubChem BioAssay data set” (2004):
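Values below derive from 48-hour exposures of cells grown in 96-well plates, with endpoints linearly interpolated between the two concentrations bracketing the appropriate inhibition level. The concentration for 50% growth inhibition is given as GI50.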 Active and inactive are the calls of the source. No stated cut-off is given here; in the data, active = GI50 up to about 1.1 µM and inactive = higher.

Columns and labels:
Test in all cases: NCI-60 cell line screen, 48 h
[1] = system: LOX IMVI
[2] = system: NCI-H522
[3] = system: A549
[4] = system: MOLT-4
[5] = system: Malme-3M
[6] = system: SN12C
[7] = system: OVCAR-8
[8] = system: SNB-75
[9] = system: SK-MEL-28
[10] = system: CCRF-CEM
[11] = system: U-251
[12] = system: HCT-116
[13] = system: RXF 393
[14] = system: HCC 2998
[15] = system: SK-MEL-2
[16] = system: ACHN
[17] = system: MCF7
[18] = system: MDA-MB-231
[19] = system: MDA-N
[20] = system: NCI-H226

Row | SMILES | GI50 [1] | GI50 [2] | GI50 [3] | GI50 [4] | GI50 [5] | GI50 [6] | GI50 [7] | GI50 [8] | GI50 [9] | GI50 [10] | GI50 [11] | GI50 [12] | GI50 [13] | GI50 [14] | GI50 [15] | GI50 [16] | GI50 [17] | GI50 [18] | GI50 [19] | GI50 [20]
1 | COC(=O)CCc1cc(OC)c(O)c(C(Cc2ccc(OC)c(OC)c2)C(=O)OC)c1 (stereo not given) | > 100 µM (inactive) | > 100 µM (inactive) | > 100 µM (inactive) | > 100 µM (inactive) | > 100 µM (inactive) | > 100 µM (inactive) | > 100 µM (inactive) | > 100 µM (inactive) | > 100 µM (inactive) | > 100 µM (inactive) | > 100 µM (inactive) | > 100 µM (inactive) | > 100 µM (inactive) | > 100 µM (inactive) | > 100 µM (inactive) | > 100 µM (inactive) | > 100 µM (inactive) | > 100 µM (inactive) | > 100 µM (inactive) | > 100 µM (inactive)
2 | O=C(Nc1ccc2c(c1)oc(=O)c1ccccc12)C(Cl)Cl | > 100 µM (inactive) | > 100 µM (inactive) | 39.1 µM (inactive) | 54.7 µM (inactive) | > 100 µM (inactive) | > 100 µM (inactive) | > 100 µM (inactive) | > 100 µM (inactive) | > 100 µM (inactive) | > 100 µM (inactive) | 60.1 µM (inactive) | 69.3 µM (inactive) | > 100 µM (inactive) | 63.5 µM (inactive) | > 100 µM (inactive) | > 100 µM (inactive) | 34.8 µM (inactive) | > 100 µM (inactive) | > 100 µM (inactive) | > 100 µM (inactive)
3 | CC1=NC(C)(C)[N+]([O-])=C1 | > 10 µM (inactive) | > 10 µM (inactive) | > 10 µM (inactive) | > 10 µM (inactive) | 8.73 µM (inactive) | > 10 µM (inactive) | > 10 µM (inactive) | 0.0718 µM (active) | > 10 µM (inactive) | > 10 µM (inactive) | > 10 µM (inactive) | > 10 µM (inactive) | > 10 µM (inactive) | > 10 µM (inactive) | > 10 µM (inactive) | > 10 µM (inactive) | > 10 µM (inactive) | > 10 µM (inactive) | > 10 µM (inactive) | > 10 µM (inactive)
4 | O=C1Oc2ccccc2C(=O)/C1=C1/C=C(c2ccccc2)SS1 | 64.7 µM (inactive) | 49.3 µM (inactive) | > 100 µM (inactive) | 30.4 µM (inactive) | 96.4 µM (inactive) | 69 µM (inactive) | > 100 µM (inactive) | > 100 µM (inactive) | > 100 µM (inactive) | 22.6 µM (inactive) | 76 µM (inactive) | 56.6 µM (inactive) | 63.2 µM (inactive) | 96.8 µM (inactive) | > 100 µM (inactive) | > 100 µM (inactive) | > 100 µM (inactive) | 80.4 µM (inactive) | 34.8 µM (inactive) | 24.3 µM (inactive)
5 | C[N+](C)(C)CC1CCc2ccccc2C1=O (stereo not given) | 18.7 µM (inactive) | 0.0809 µM (active) | 26.3 µM (inactive) | 2.32 µM (inactive) | 1.8 µM (inactive) | 8.43 µM (inactive) | 17.1 µM (inactive) | 16.7 µM (inactive) | 8.89 µM (inactive) | 2.55 µM (inactive) | 5.64 µM (inactive) | 5.55 µM (inactive) | 14.2 µM (inactive) | 15.3 µM (inactive) | 16.7 µM (inactive) | 7.55 µM (inactive) | 1.64 µM (inactive) | 7.13 µM (inactive) | 5.86 µM (inactive) | 24.2 µM (inactive)
6 | Cc1ccc(Cc2nn(C)c(=O)n2-n2cccc2)cc1 | > 100 µM (inactive) | > 100 µM (inactive) | > 100 µM (inactive) | > 100 µM (inactive) | > 100 µM (inactive) | > 100 µM (inactive) | > 100 µM (inactive) | > 100 µM (inactive) | > 100 µM (inactive) | > 100 µM (inactive) | > 100 µM (inactive) | > 100 µM (inactive) | > 100 µM (inactive) | > 100 µM (inactive) | > 100 µM (inactive) | > 100 µM (inactive) | > 100 µM (inactive) | > 100 µM (inactive) | > 100 µM (inactive) | > 100 µM (inactive)
7 | CCC1CCN/C(=N/S(=O)(=O)c2cc(C)c(Cl)cc2S)N1 (stereo not given) | 24.1 µM (inactive) | 27.7 µM (inactive) | > 100 µM (inactive) | 21.7 µM (inactive) | 37.2 µM (inactive) | 43.3 µM (inactive) | 19.8 µM (inactive) | 40 µM (inactive) | 52.7 µM (inactive) | 25.9 µM (inactive) | 13.8 µM (inactive) | 24.7 µM (inactive) | 76.2 µM (inactive) | 43.2 µM (inactive) | 26.4 µM (inactive) | 34.6 µM (inactive) | 33.3 µM (inactive) | 44.8 µM (inactive) | 33 µM (inactive) | 26.7 µM (inactive)
8 | C=CCNC(=O)NNC(O)(C(=O)OCC)C(F)(F)F (stereo not given) | > 100 µM (inactive) | > 100 µM (inactive) | > 100 µM (inactive) | > 100 µM (inactive) | > 100 µM (inactive) | > 100 µM (inactive) | > 100 µM (inactive) | > 100 µM (inactive) | > 100 µM (inactive) | > 100 µM (inactive) | > 100 µM (inactive) | > 100 µM (inactive) | > 100 µM (inactive) | > 100 µM (inactive) | > 100 µM (inactive) | > 100 µM (inactive) | > 100 µM (inactive) | > 100 µM (inactive) | > 100 µM (inactive) | > 100 µM (inactive)
9 | Clc1ccc(C2ON=C(c3ccccc3)N2C23CC4CC(CC(C4)C2)C3)cc1 (stereo not given) | > 10 µM (inactive) | > 10 µM (inactive) | > 10 µM (inactive) | 9.66 µM (inactive) | > 10 µM (inactive) | > 10 µM (inactive) | > 10 µM (inactive) | > 10 µM (inactive) | > 10 µM (inactive) | > 10 µM (inactive) | > 10 µM (inactive) | > 10 µM (inactive) | > 10 µM (inactive) | > 10 µM (inactive) | > 10 µM (inactive) | > 10 µM (inactive) | > 10 µM (inactive) | > 10 µM (inactive) | > 10 µM (inactive) | > 10 µM (inactive)
10 | c1ccc(C2C3=C(c4ccccc4CC3)N3c4cc5c(cc4=NC34CCCCC24)Nc2ccccc2N=5)cc1 (stereo not given) | 8.04 µM (inactive) | 1 µM (active) | > 10 µM (inactive) | 2.4 µM (inactive) | > 10 µM (inactive) | > 10 µM (inactive) | > 10 µM (inactive) | 9.27 µM (inactive) | > 10 µM (inactive) | 1.67 µM (inactive) | > 10 µM (inactive) | 5.55 µM (inactive) | 6.59 µM (inactive) | > 10 µM (inactive) | > 10 µM (inactive) | 7.26 µM (inactive) | 7.69 µM (inactive) | 9.79 µM (inactive) | 5.83 µM (inactive) | 6.58 µM (inactive)
